# From publication PMC6115637 (Chemical Science, 2018)
# Positions count from the first letter of the chain named.
# Experiments:
# Assay type in all cases: cell-based
# M4 receptor V120A = target: T1, M4 receptor V120A (Homo sapiens, UniProt P08173, V120A); assay: Split luciferase biosensor cAMP assay for Gi activation, M4 mutant V120A; conditions: M4 mutant V120A vs WT
# T1 sequence (P08173 1-479 V120A): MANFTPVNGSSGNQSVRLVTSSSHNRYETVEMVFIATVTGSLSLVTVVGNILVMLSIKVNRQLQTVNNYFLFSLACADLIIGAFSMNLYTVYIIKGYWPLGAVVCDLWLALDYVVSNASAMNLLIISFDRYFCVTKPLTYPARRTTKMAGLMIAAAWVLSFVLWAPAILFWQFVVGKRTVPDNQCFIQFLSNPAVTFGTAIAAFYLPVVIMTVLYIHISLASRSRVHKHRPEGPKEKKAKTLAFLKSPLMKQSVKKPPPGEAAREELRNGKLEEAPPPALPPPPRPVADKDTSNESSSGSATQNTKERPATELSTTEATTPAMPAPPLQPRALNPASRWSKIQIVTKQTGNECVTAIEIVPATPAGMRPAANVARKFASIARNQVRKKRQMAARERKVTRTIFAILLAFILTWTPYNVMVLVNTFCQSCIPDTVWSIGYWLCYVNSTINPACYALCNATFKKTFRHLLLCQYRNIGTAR
# M4 receptor N445A = target: T2, M4 receptor N445A (Homo sapiens, UniProt P08173, N445A); assay: Split luciferase biosensor cAMP assay for Gi activation, M4 mutant N445A; conditions: M4 mutant N445A vs WT
# T2 sequence (P08173 1-479 N445A): T1 sequence (P08173 1-479 V120A) with A120V, N445A
# M4 receptor S119A = target: T3, M4 receptor S119A (Homo sapiens, UniProt P08173, S119A); assay: Split luciferase biosensor cAMP assay for Gi activation, M4 mutant S119A; conditions: M4 mutant S119A vs WT
# T3 sequence (P08173 1-479 S119A): T1 sequence (P08173 1-479 V120A) with S119A, A120V
# M4 receptor F409A = target: T4, M4 receptor F409A (Homo sapiens, UniProt P08173, F409A); assay: Split luciferase biosensor cAMP assay for Gi activation, M4 mutant F409A; conditions: M4 mutant F409A vs WT
# T4 sequence (P08173 1-479 F409A): T1 sequence (P08173 1-479 V120A) with A120V, F409A
# M4 receptor S116A = target: T5, M4 receptor S116A (Homo sapiens, UniProt P08173, S116A); assay: Split luciferase biosensor cAMP assay for Gi activation, M4 mutant S116A; conditions: M4 mutant S116A vs WT
# T5 sequence (P08173 1-479 S116A): T1 sequence (P08173 1-479 V120A) with S116A, A120V
# M4 receptor I81A = target: T6, M4 receptor I81A (Homo sapiens, UniProt P08173, I81A); assay: Split luciferase biosensor cAMP assay for Gi activation, M4 mutant I81A; conditions: M4 mutant I81A vs WT
# T6 sequence (P08173 1-479 I81A): T1 sequence (P08173 1-479 V120A) with I81A, A120V
# M4 receptor W413A = target: T7, M4 receptor W413A (Homo sapiens, UniProt P08173, W413A); assay: Split luciferase biosensor cAMP assay for Gi activation, M4 mutant W413A
# T7 sequence (P08173 1-479 W413A): T1 sequence (P08173 1-479 V120A) with A120V, W413A
structure (smiles),measurement,setting,value
"CC(=O)OCC[N+](C)(C)C [ACh, acetylcholine]",change of EC50 compared to WT M4 receptor (printed: increased the EC50),M4 receptor V120A,16 fold
same,decreased activity compared to WT M4 receptor,M4 receptor N445A,4–14 fold
same,decreased activity compared to WT M4 receptor,M4 receptor S119A,4–14 fold
same,decreased activity compared to WT M4 receptor,M4 receptor F409A,4–14 fold
same,activity decrease compared to WT M4 receptor,M4 receptor S116A,100 times
same,activity decrease compared to WT M4 receptor,M4 receptor I81A,100 times
same,activity of M4 mutant towards ACh,M4 receptor W413A,completely inactive
